Test system: SEM cells
Assay: cell viability relative to DMSO control; higher = less cytotoxic
Conditions: 48 h
Method in brief: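 Viability was expressed as a per-plate percentage of DMSO wells, with cell-free wells as background. Leukemia cells (NOMO1 or SEM at 500 cells/well, P12-Ichikawa at 1000 cells/well) were adapted for at least four passages in each medium and seeded in 1536-well plates (5 μl). Library compounds in DMSO were pin-dosed over an 11-point threefold series from 47 μM to 0.79 nM, and CellTiter-Glo One luminescence was read after 48 h at 37°C.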

[1] = HPLM + 10% dialyzed FBS, 0.000781 µM
[2] = HPLM + 10% dialyzed FBS, 0.00234 µM
[3] = HPLM + 10% dialyzed FBS, 0.00702 µM
[4] = HPLM + 10% dialyzed FBS, 0.0211 µM
[5] = HPLM + 10% dialyzed FBS, 0.0632 µM
[6] = HPLM + 10% dialyzed FBS, 0.19 µM
[7] = HPLM + 10% dialyzed FBS, 0.569 µM
[8] = HPLM + 10% dialyzed FBS, 1.71 µM
[9] = HPLM + 10% dialyzed FBS, 5.12 µM
[10] = HPLM + 10% dialyzed FBS, 15.4 µM
[11] = HPLM + 10% dialyzed FBS, 46.1 µM
[12] = RPMI 5 mM glucose + 10% FBS, 0.000781 µM
[13] = RPMI 5 mM glucose + 10% FBS, 0.00234 µM
[14] = RPMI 5 mM glucose + 10% FBS, 0.00702 µM
[15] = RPMI 5 mM glucose + 10% FBS, 0.0211 µM
[16] = RPMI 5 mM glucose + 10% FBS, 0.0632 µM
[17] = RPMI 5 mM glucose + 10% FBS, 0.19 µM
[18] = RPMI 5 mM glucose + 10% FBS, 0.569 µM
[19] = RPMI 5 mM glucose + 10% FBS, 1.71 µM
[20] = RPMI 5 mM glucose + 10% FBS, 5.12 µM
[21] = RPMI 5 mM glucose + 10% FBS, 15.4 µM
[22] = RPMI 5 mM glucose + 10% FBS, 46.1 µM
[23] = RPMI 5 mM glucose + 10% dialyzed FBS, 0.000781 µM
[24] = RPMI 5 mM glucose + 10% dialyzed FBS, 0.00234 µM
[25] = RPMI 5 mM glucose + 10% dialyzed FBS, 0.00702 µM
[26] = RPMI 5 mM glucose + 10% dialyzed FBS, 0.0211 µM
[27] = RPMI 5 mM glucose + 10% dialyzed FBS, 0.0632 µM
[28] = RPMI 5 mM glucose + 10% dialyzed FBS, 0.19 µM
[29] = RPMI 5 mM glucose + 10% dialyzed FBS, 0.569 µM
[30] = RPMI 5 mM glucose + 10% dialyzed FBS, 1.71 µM
[31] = RPMI 5 mM glucose + 10% dialyzed FBS, 5.12 µM
[32] = RPMI 5 mM glucose + 10% dialyzed FBS, 15.4 µM
[33] = RPMI 5 mM glucose + 10% dialyzed FBS, 46.1 µM

Structure (SMILES) | cell viability [1] [%] | cell viability [2] [%] | cell viability [3] [%] | cell viability [4] [%] | cell viability [5] [%] | cell viability [6] [%] | cell viability [7] [%] | cell viability [8] [%] | cell viability [9] [%] | cell viability [10] [%] | cell viability [11] [%] | cell viability [12] [%] | cell viability [13] [%] | cell viability [14] [%] | cell viability [15] [%] | cell viability [16] [%] | cell viability [17] [%] | cell viability [18] [%] | cell viability [19] [%] | cell viability [20] [%] | cell viability [21] [%] | cell viability [22] [%] | cell viability [23] [%] | cell viability [24] [%] | cell viability [25] [%] | cell viability [26] [%] | cell viability [27] [%] | cell viability [28] [%] | cell viability [29] [%] | cell viability [30] [%] | cell viability [31] [%] | cell viability [32] [%] | cell viability [33] [%]
C[C@H](NC(=O)C(=O)Nc1ccccc1C(C)(C)C)C(=O)N[C@@H](CC(=O)O)C(=O)COc1c(F)c(F)cc(F)c1F | 89.4 | 106 | 103 | 73.1 | 117 | 113 | 123 | 104 | 58.4 | 12.6 | 18.2 | 99.5 | 103 | 117 | 78 | 119 | 112 | 127 | 104 | 64.9 | 9.34 | 5.77 | 90.8 | 109 | 104 | 74.8 | 118 | 114 | 113 | 109 | 56.9 | 10.3 | 6.8
O=[N+]([O-])c1cn2c(n1)OC[C@@H](OCc1ccc(OC(F)(F)F)cc1)C2 | 105 | 97.3 | 108 | 115 | 109 | 101 | 96.3 | 89 | 86.7 | 92.4 | 90.5 | 120 | 112 | 118 | 144 | 117 | 129 | 137 | 125 | 114 | 122 | 132 |  |  |  |  |  |  |  |  |  |  | 
O=C(Cc1cccc(OC(F)(F)F)c1)Nc1ccc(CCCCc2nnc(NC(=O)Cc3ccccn3)s2)nn1 | 122 | 107 | 119 | 112 | 107 | 89 | 86.7 | 87.4 | 79.5 | 72 | 65.1 |  |  |  |  |  |  |  |  |  |  |  | 141 | 116 | 108 | 91.8 | 78.8 | 70.3 | 70.6 | 60.2 | 56.7 | 50.7 | 46
O=C1\C=C(/OC2=C1C=CC=C2C3=CC=CC=C3)N4CCOCC4 | 45.8 | 90.5 | 89.2 | 80.6 | 65.1 | 89.3 | 90.3 | 59 | 87.3 | 92.3 | 58.3 | 71.7 | 114 | 111 | 115 | 75.6 | 91.8 | 110 | 74 | 114 | 94.6 | 79.6 | 48.9 | 90 | 88.3 | 94.4 | 66.7 | 80 | 86.5 | 61.9 | 101 | 84.7 | 62.7
COCCOC(=O)C/1=C(C)/NC/2=C(C1C3=CC=CC(=C3)O)/C(=O)CC(C2)C4=C(OC)C=CC=C4 (stereo unspecified) | 90.2 | 80.6 | 106 | 108 | 98.2 | 87.7 | 100 | 101 | 94.3 | 57 | 30.1 | 98.9 | 96.8 | 97.8 | 126 | 103 | 90.6 | 115 | 90.8 | 78.5 | 45.6 | 24.4 | 80.8 | 79.2 | 122 | 104 | 105 | 82.4 | 102 | 101 | 74.1 | 50.9 | 21.7
Fc1cc(-c2cccc3ncc(-c4cnn(C5CCNCC5)c4)nc23)cc(F)c1CN1CCOCC1 |  |  |  |  |  |  |  |  |  |  |  | 110 | 113 | 107 | 110 | 112 | 105 | 103 | 95.8 | 27.4 | 25.7 | 16 |  |  |  |  |  |  |  |  |  |  | 
Cc1[nH]c(/C=C2\C(=O)Nc3ccc([S+](=O)([O-])N(C)c4cccc(Cl)c4)cc32)c(C)c1C(=O)N1CCN(C)CC1 | 101 | 120 | 113 | 125 | 129 | 108 | 114 | 98.3 | 71.5 | 38.6 | 2.39 | 98.4 | 111 | 118 | 107 | 96.9 | 82 | 106 | 86.5 | 54.3 | 31.3 | 1.69 |  |  |  |  |  |  |  |  |  |  | 
NC(=O)N1c2ccccc2CC(=O)c2ccccc21 |  |  |  |  |  |  |  |  |  |  |  | 124 | 135 | 121 | 132 | 126 | 123 | 139 | 137 | 137 | 161 | 142 | 110 | 116 | 114 | 117 | 129 | 118 | 105 | 124 | 122 | 123 | 147
CN[C@H](CC(C)C)C(=O)N[C@H]1C(=O)N[C@@H](CC(N)=O)C(=O)N[C@H]2C(=O)N[C@H]3C(=O)N[C@H](C(=O)N[C@H](C(=O)O)c4cc(O)cc(O)c4-c4cc3ccc4O)[C@H](O)c3ccc(c(Cl)c3)Oc3cc2cc(c3O[C@@H]2O[C@H](CO)[C@@H](O)[C@H](O)[C@H]2O[C@H]2C[C@](C)(N)[C@H](O)[C@H](C)O2)Oc2ccc(cc2Cl)[C@H]1O | 94.2 | 94.3 | 124 | 112 | 125 | 111 | 128 | 89 | 126 | 129 | 122 | 127 | 114 | 120 | 130 | 144 | 143 | 148 | 126 | 138 | 131 | 142 | 112 | 126 | 125 | 138 | 126 | 114 | 131 | 95.9 | 138 | 118 | 110

Reference: the supplement of paper PMC11451515
